Laboratory results: publication PMC4559029 (Cancer Medicine, 2015)

How the values were obtained:
[1] = design: method as in earlier work; settings: ondansetron 32 mg IV; cited from earlier work
[2] = published QT results for ondansetron; type: in vivo; settings: 24 mg ondansetron, inferred by authors from published 32 mg data
Protocol: The majority of patients (18/26) received ondansetron 24 mg IV.

patients = settings: early clinical development, across several studies; cited from earlier work
hERG-related current = settings: at 10 μg/mL; ref data on file, Celgene Corporation; cited from earlier work
clinical = settings: human, plasma, intravenous
[3] = test system: patients with advanced malignancy; test: centrally read ECG analysis (QTcF, PR, QRS, heart rate) in patients with advanced malignancy
Protocol: All patients provided written informed consent.
PK/PD modeling is not reported as it was not possible to account for the possible effects of coadministered antiemetics and the absence of closely collected ECGs during times of PK sampling when rapid changes in the plasma concentrations occurred. For the central tendency and categorical analyses, the mean of the three replicates was used. All paper ECGs were analyzed by a core central ECG laboratory (Duke Clinical Research Institute [DCRI], Durham, NC) in a fully blinded fashion. A DCRI technician marked the fiducial points on each ECG tracing and, using a digital caliper, measured the QT, PR, RR, and QRS intervals. All ECGs were over read by a DCRI cardiologist for verification of the interval measurements.

| Structure (SMILES) | increase in QTc at 4 h [1] | initial increase in QTc [1] | QTc effect at 4 h [2] [ms] | patients with sudden death (patients) | inhibition of hERG-related current (hERG-related current) [%] | AUC(0-inf) (clinical; 8 mg/m^2) [ng·h/mL] | Cmax (clinical; 8 mg/m^2) [ng/mL] | half-life (clinical; 8 mg/m^2) [h] | Cmax (clinical; 10 mg/m^2) [ng/mL] | half-life (clinical; 10 mg/m^2) [h] | AUC(0-inf) (clinical; 12 mg/m^2) [ng·h/mL] | Cmax (clinical; 12 mg/m^2) [ng/mL] | half-life (clinical; 12 mg/m^2) [h] | AUC(0-inf) (clinical; 14 mg/m^2) [ng·h/mL] | Cmax (clinical; 14 mg/m^2) [ng/mL] | half-life (clinical; 14 mg/m^2) [h] | upper 90% CI of maximal mean QTcF increase from preantiemetic baseline ([3]; 14 mg/m^2 4-h infusion, at 0.25 h postinitiation) [ms] | increase in heart rate ([3]; human, in vivo) | patients with absolute QTcF value >450 msec ([3]; human, in vivo) |
| --- | --- | --- | --- | --- | --- | --- | --- | --- | --- | --- | --- | --- | --- | --- | --- | --- | --- | --- | --- |
| Cc1nccn1CC1CCc2c(c3ccccc3n2C)C1=O (stereo not shown) [ondansetron] | ≈ 6 msec | ≈ 20 msec | < 5 |  |  |  |  |  |  |  |  |  |  |  |  |  |  |  |  |
| C/C=C1\NC(=O)[C@H]2CSSCC/C=C/[C@H](CC(=O)N[C@H](C(C)C)C(=O)N2)OC(=O)[C@H](C(C)C)NC1=O [romidepsin] |  |  |  | six | 37 | 1350 | 1110 | 4.82 | 1480 | 4.94 | 3010 | 2090 | 4.32 | 3070 | 780 | 3.7 | 14.5 | ≈ 20 bpm | No patient |
